Earlier results as cited in PubChem BioAssay AID1259410 (Chemical Carcinogenesis Research Information System (CCRIS), 2018).

Test system: rodent tumor promotion studies, tumor incidence
Assay: CCRIS tumor promotion studies
[1] = Carcinogen: 7,12-DIMETHYLBENZ(A)ANTHRACENE, Doses [Carcinogen]: TOP, Route [Carcinogen]: DERMAL, Route [Promoter]: DERMAL, Species: MOUSE, Strain/Sex: FEMALE

In the case of `CC(C)CCC[C@@H](C)[C@H]1CC[C@H]2[C@@H]3CC=C4C[C@@H](O)CC[C@]4(C)[C@H]3CC[C@]12C`, the outcome (Carcinogen: N-NITROSOBIS(2-OXOPROPYL)AMINE, 60599-38-4, Doses [Carcinogen]: 70 MG/KG ONCE, Doses [Promoter]: 0, 0.5% IN DIET BEGINNING 2 WK POST CARCINOGEN DOSE AND CONTINUING FOR 16 WK (STUDY DURATION: 18 WK), Route [Carcinogen]: SUBCUTANEOUS, Route [Promoter]: ORAL, Species: HAMSTER, Strain/Sex: SYRIAN/FEMALE) is given as “pancreas: adenocarcinoma”.

In the case of `c1c[nH]cn1`, the outcome (Carcinogen: N-METHYL-N-NITROSOUREA, 684-93-5, Doses [Carcinogen]: 40 MG/KG ONCE, Doses [Promoter]: 1000 MG/KG OF HIGH (20%) FAT DIET BEGINNING 1 WK POST CARCINOGEN DOSE AND CONTINUING FOR DURATION OF STUDY (STUDY DURATI, Route [Carcinogen]: SUBCUTANEOUS, Route [Promoter]: ORAL, Species: RAT, Strain/Sex: SPRAGUE-DAWLEY/FEMALE) is listed as “mammary gland: tumor”.

In the case of `COc1cc(NS(=O)(=O)c2ccc(N)cc2)nc(OC)n1`, the outcome (Carcinogen: Kojic acid, 501-30-4, Doses [Carcinogen]: 0.02, 0.2, 2% in diet for 8 wk before administration of promoter, Doses [Carcinogen]: 0.02, 0.2, 2% in diet for 8 wk before administration of promoter, Doses [Promoter]: 0.1% in drinking water from 8 wk to 31 wk of experiment, study duration 44 wk, Route [Carcinogen]: Oral, Route [Promoter]: Oral, Species: Rat, Strain/Sex: F344//Male (20/experimental group (10 killed at 31 wk & 10 killed at 44 wk); 15/controls)) is listed as “thyroid: negative for tumors” and the outcome (Carcinogen: N-bis(2-hydroxypropyl)nitrosamine, 53609-64-6, Doses [Carcinogen]: 700 mg/kg, 4 injections administered over 8 wk before promoter, Doses [Promoter]: 0.1% in drinking water from 8 wk to 31 wk of experiment, study duration 44 wk, Route [Carcinogen]: Subcutaneous, Route [Promoter]: Oral, Species: Rat, Strain/Sex: F344//Male (20/experimental group (10 killed at 31 wk & 10 killed at 44 wk); 15/controls)) is listed as “thyroid: adenoma and carcinoma at both 31 and 44 wk”.

For `CC/C(=C(\c1ccccc1)c1ccc(OCCN(C)C)cc1)c1ccccc1`, the outcome (Carcinogen: P-DIMETHYLAMINOAZOBENZENE [60-11-7], Doses [Carcinogen]: 0.5% IN DIET FOR 28 WK (STUDY DURATION: 20 WK), Doses [Promoter]: 0, 0.025% IN DIET FOR 25 WK BEGINNING 3 WK POST FIRST CARCINOGEN DOSE (STUDY DURATION: 28 WK), Route [Carcinogen]: ORAL, Route [Promoter]: ORAL, Species: MOUSE, Strain/Sex: CF-1/MALE) is listed as “liver: hepatocellular carcinoma”.

For `Clc1cc(Cl)c(-c2ccc(Cl)c(Cl)c2Cl)cc1Cl`, the outcome (Carcinogen: N-NITROSODIMETHYLAMINE, 62-75-9, Doses [Carcinogen]: 5 MG/KG IN SALINE ON POSTNATAL DAY 4, Doses [Promoter]: 0, 20 MG/KG IN OLIVE OIL ON POSTNATAL DAY 8 (STUDY DURATION: 16 WK), Route [Carcinogen]: INTRAPERITONEAL, Route [Promoter]: GAVAGE, Species: MOUSE, Strain/Sex: SWISS/MALE, FEMALE) is listed as “lung: tumor”.

For `O=NN1CCCC1`, the outcome (Carcinogen: N-BUTYL-N-4(HYDROXYBUTYL)NITROSAMINE, 3817-11-6, Doses [Carcinogen]: 0.05% IN DRINKING WATER FOR 2 WK, Doses [Promoter]: 0, 0.02% IN DIET STARTING POST CARCINOGEN AND CONTINUING FOR 22 WK, LEFT URETER LIGATED 8 D POST CARCINOGEN (STUDY DURAT, Route [Carcinogen]: ORAL, Route [Promoter]: ORAL, Species: RAT, Strain/Sex: F344/MALE) is given as “bladder: papilloma”.

In the case of `COC(=O)[C@@H](N)Cc1ccc(O)cc1`, the outcome (Carcinogen: N-METHYL-N'-NITRO-N-NITROSOGUANIDINE, 70-25-7, Doses [Carcinogen]: 25 UG/ML IN DRINKING WATER FOR 25 WK, Doses [Promoter]: 0, 512 MG/KG BW IN 0.9% SALINE 1/2 D FOR 26 WK BEGINNING 1 WK POST CARCINOGEN TREATMENT (STUDY DURATION: 52 WK), Route [Carcinogen]: ORAL, Route [Promoter]: SUBCUTANEOUS, Species: RAT, Strain/Sex: WISTAR/MALE) is given as “stomach: adenocarcinoma” and the outcome (Carcinogen: N-METHYL-N'-NITRO-N-NITROSOGUANIDINE, 70-25-7, Doses [Carcinogen]: 50 UG/ML IN DRINKING WATER FOR 20 WK, Doses [Promoter]: 0, 2 ML/KG IN A VOLUME OF 2 ML/KG 0.9% NACL AT DOSE LEVEL OF 512 MG/KG/BW 1/2 D FOR 32 WK (STUDY DURATION: 32 WK), Route [Carcinogen]: ORAL, Route [Promoter]: SUBCUTANEOUS, Species: RAT, Strain/Sex: WISTAR/MALE) is given as “stomach: adenocarcinoma”.

In the case of `O=C(O)C(Cl)Cl`, the outcome (Carcinogen: N-METHYL-N-NITROSOUREA, 684-93-5, Doses [Carcinogen]: 25 MG/KG IN STERILE SALINE ONCE, Doses [Promoter]: 0, 25 MMOL/L IN DRINKING WATER FOR 44 WK BEGINNING 2 WK POST CARCINOGEN DOSE (STUDY DURATION: 46 WK), Route [Carcinogen]: INTRAPERITONEAL, Route [Promoter]: ORAL, Species: MOUSE, Strain/Sex: B6C3F1/FEMALE) is listed as “liver: adenoma”, the outcome (Carcinogen: N-METHYL-N-NITROSOUREA, 684-93-5, Doses [Carcinogen]: 25 MG/KG ONCE AT 15 D OF AGE, Doses [Promoter]: 0, 20 NMOL/L IN DRINKING WATER FOR 31 WK BEGINNING AT 7 WK OF AGE (STUDY DURATION: 31 WK), Route [Carcinogen]: INTRAPERITONEAL, Route [Promoter]: ORAL, Species: MOUSE, Strain/Sex: B6C3F1/FEMALE) is listed as “liver: adenoma” and the outcome (Carcinogen: N-METHYL-N-NITROSOUREA, 684-93-5, Doses [Carcinogen]: 25 MG/KG ONCE AT 15 D OF AGE, Doses [Promoter]: 0, 20 NMOL/L IN DRINKING WATER FOR 52 WK BEGINNING AT 7 WK OF AGE (STUDY DURATION: 52 WK), Route [Carcinogen]: INTRAPERITONEAL, Route [Promoter]: ORAL, Species: MOUSE, Strain/Sex: B6C3F1/FEMALE) is listed as “liver: adenoma”.

For `CCCCCCCCCCCCCC`, the outcome [1] is listed as “integumentary system (skin)” and the outcome (Carcinogen: BENZO(A)PYRENE, Doses [Carcinogen]: TOP, Route [Carcinogen]: DERMAL, Route [Promoter]: DERMAL, Species: MOUSE, Strain/Sex: FEMALE) is listed as “integumentary system (skin)”.

In the case of `O=c1cc[nH]c(=O)[nH]1`, the outcome (Carcinogen: N-ETHYL-N-HYDROXYETHYLNITROSAMINE, 13147-25-6, Doses [Carcinogen]: 0.05% IN DRINKING WATER FOR 3 WK, Doses [Promoter]: 0, 3% IN DIET FOR 3 WK ADMINISTERED SIMULTANEOUSLY WITH CARCINOGEN (STUDY DURATION: 52 WK), Route [Carcinogen]: ORAL, Route [Promoter]: ORAL, Species: RAT, Strain/Sex: F344/FEMALE) is listed as “kidney: adenocarcinoma” and the outcome (Carcinogen: N-METHYL-N-NITROSOUREA, 684-93-5, Doses [Carcinogen]: 20 MG/KG 2/WK FOR 4 WK, Doses [Promoter]: 0, 3% IN DIET FOR 20 WK BEGINNING POST LAST CARCINOGEN DOSE (STUDY DURATION: 24 WK), Route [Carcinogen]: INTRAPERITONEAL, Route [Promoter]: ORAL, Species: RAT, Strain/Sex: F344/MALE) is listed as “urinary bladder: carcinoma”.

In the case of `Oc1ccc(Br)cc1`, the outcome [1] is given as “integumentary system (skin)”.

For `C=C/C=C\C1C2/C=C/CC(=O)O[C@@]34C[C@@H](C)[C@]5(O)C6C=C(C)C(=O)[C@@]6(O)CC(CO)=C[C@H]5[C@@H]3[C@@]4(C)COC(=O)C2C2C(/C=C/C=C/C=C/CCC)C12` (stereo not given in full), the outcome (Carcinogen: 7,12-DIMETHYLBENZ[A]ANTHRACENE, 57-97-6, Doses [Carcinogen]: 100 UG IN O.1 ML ACETONE, Doses [Promoter]: 0, 2 UG IN 0.1 ML OF METHANOL 2/WK FOR 16 WK BEGINNING 1 WK POST CARCINOGEN DOSE THEN 5 UG 2/WK FOR 13 WK (STUDY DURATIO, Route [Carcinogen]: DERMAL, Route [Promoter]: DERMAL, Species: MOUSE, Strain/Sex: CD-1/FEMALE) is given as “skin: tumor”.

For `Nc1ccc(Cc2ccc(N)cc2)cc1`, the outcome (Carcinogen: 2,2'-DIHYDROXY-N-NITROSODIPROPYLAMINE, 53609-64-6, Doses [Carcinogen]: 280 MG/100 G IN 0.5 ML SALINE ONCE, Doses [Promoter]: 0, 1000 PPM IN DIET FOR 19 WK (STUDY DURATION: 19 WK), Route [Carcinogen]: INTRAPERITONEAL, Route [Promoter]: ORAL, Species: RAT, Strain/Sex: WISTAR/MALE) is given as “thyroid: tumor” and the outcome (Carcinogen: N-BIS(2-HYDROXYPROPYL)NITROSAMINE, 53609-64-6, N-ETHYL-N-HYDROXYETHYLNITROSAMINE, 13147-25-6, 3,2'-DIMETHYL-4-AMINOB, Carcinogen: N-BIS(2-HYDROXYPROPYL)NITROSAMINE, 53609-64-6, N-ETHYL-N-HYDROXYETHYLNITROSAMINE, 13147-25-6, 3,2'-DIMETHYL-4-AMINOB, Doses [Carcinogen]: 1000 MG/KG IP IN SALINE ON DAY 1 AND 4, 1500 MG/KG IG IN DISTILLED WATER ON DAY 8 AND 11, 75 MG/KG SC IN CORN OIL ON D, Doses [Carcinogen]: 1000 MG/KG IP IN SALINE ON DAY 1 AND 4, 1500 MG/KG IG IN DISTILLED WATER ON DAY 8 AND 11, 75 MG/KG SC IN CORN OIL ON D, Doses [Promoter]: 0, 0.1% IN DIET BEGINNING 1 WK POST LAST CARCINOGEN DOSE AND CONTINUING FOR 12 WK (STUDY DURATION: 16 WK), Route [Carcinogen]: INTRAPERITONEAL, GAVAGE, SUBCUTANEOUS, Route [Carcinogen]: INTRAPERITONEAL, GAVAGE, SUBCUTANEOUS, Route [Promoter]: ORAL, Species: RAT, Strain/Sex: F344/MALE) is given as “thyroid: adenoma, adenocarcinoma”.
